Key:
Assay in all cases: relative viability (nuclei count vs DMSO), 5 days (fraction); higher = more cells survive
[1] = compound: CC(C)C[C@H](NC(=O)[C@H](Cc1ccccc1)NC(=O)c1cnccn1)B(O)O [Bortezomib] + NC(=O)Nc1cc(-c2cccc(F)c2)sc1C(=O)N[C@H]1CCCNC1 [AZD7762] (partner 0.2 µM)
How it was run: (§1)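 Dosing by pin tool came one day after lung cancer cell lines were seeded in 1536-well plates, using either one drug or a fixed anchor-drug dose plus five library-drug doses (not always all listed) in √10 steps. After 5 days, nuclei were counted on 4× images. Relative viability is treated-well nuclei count divided by vehicle-well nuclei count, and values are medians of duplicate plates.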

[2] = compound: CC(C)C[C@H](NC(=O)[C@H](Cc1ccccc1)NC(=O)c1cnccn1)B(O)O [Bortezomib] + CC(=O)Nc1cccc(-n2c(=O)n(C3CC3)c(=O)c3c(Nc4ccc(I)cc4F)n(C)c(=O)c(C)c32)c1 [Trametinib] (partner 0.02 µM)
How it was run: as §1

[3] = compound: CC(C)C[C@H](NC(=O)[C@H](Cc1ccccc1)NC(=O)c1cnccn1)B(O)O [Bortezomib] + CC(=O)c1c(C)c2cnc(Nc3ccc(N4CCNCC4)cn3)nc2n(C2CCCC2)c1=O [Palbociclib] (partner 0.5 µM)
How it was run: as §1

[4] = compound: CC(C)C[C@H](NC(=O)[C@H](Cc1ccccc1)NC(=O)c1cnccn1)B(O)O [Bortezomib] + Nc1ncn([C@H]2C[C@H](O)[C@@H](CO)O2)c(=O)n1 [Decitabine] (partner 2 µM)
How it was run: as §1

Cell Line	relative viability ([1]; first compound 0.0002 µM)	relative viability ([1]; first compound 0.000632 µM)	relative viability ([1]; first compound 0.002 µM)	relative viability ([1]; first compound 0.006325 µM)	relative viability ([1]; first compound 0.02 µM)	relative viability ([2]; first compound 0.0002 µM)	relative viability ([2]; first compound 0.000632 µM)	relative viability ([2]; first compound 0.002 µM)	relative viability ([2]; first compound 0.006325 µM)	relative viability ([2]; first compound 0.02 µM)	relative viability ([3]; first compound 0.0002 µM)	relative viability ([3]; first compound 0.000632 µM)	relative viability ([3]; first compound 0.002 µM)	relative viability ([3]; first compound 0.006325 µM)	relative viability ([3]; first compound 0.02 µM)	relative viability ([4]; first compound 0.0002 µM)	relative viability ([4]; first compound 0.000632 µM)	relative viability ([4]; first compound 0.002 µM)	relative viability ([4]; first compound 0.006325 µM)	relative viability ([4]; first compound 0.02 µM)
NCI-H2085	1.04	0.907	1.07	0.881	0.225	0.622	0.501	0.54	0.228	0.155	0.464	0.475	0.458	0.253	0.232	0.588	0.544	0.593	0.298	0.246
NCI-H3122	0.976	1.09	1.03	0.784	0.11	0.215	0.276	0.222	0.232	0.124	0.197	0.204	0.205	0.135	0.102	0.439	0.438	0.403	0.34	0.129
NCI-H1651	0.451	0.474	0.485	0.507	0.131	0.802	0.843	0.726	0.155	0.117	0.505	0.504	0.401	0.113	0.103	0.659	0.732	0.619	0.665	0.172
NCI-H522	0.794	0.719	0.715	0.384	0.356	0.753	0.821	0.796	0.387	0.331	0.932	0.982	1.1	0.35	0.343	0.777	0.621	0.575	0.432	0.386
NCI-H441	1.04	1.09	0.754	0.117	0.134	0.428	0.482	0.153	0.131	0.127	0.22	0.2	0.129	0.109	0.101	0.235	0.274	0.207	0.119	0.109
NCI-H2126	1	1.01	0.968	0.942	0.516	0.548	0.599	0.54	0.496	0.202	0.365	0.349	0.369	0.328	0.208	0.603	0.597	0.535	0.552	0.197
RERF-LC-KJ	0.819	1.12	1.12	0.966	0.409	0.868	0.863	0.823	0.395	0.199	1.18	1.03	1.05	0.224	0.19	0.663	0.707	0.531	0.226	0.219
NCI-H1666	0.849	0.935	0.817	0.592	0.333	0.918	0.972	0.914	0.599	0.522	0.62	0.699	0.608	0.569	0.472	0.782	0.839	0.728	0.646	0.477
PC-14	0.279	0.336	0.364	0.123	0.0742	0.788	0.799	0.356	0.0475	0.0434	0.53	0.506	0.412	0.045	0.052	0.254	0.234	0.195	0.0599	0.0702
NCI-H1915	0.751	0.726	0.715	0.163	0.0511	0.283	0.307	0.33	0.196	0.0537	0.476	0.519	0.54	0.118	0.0404	0.266	0.256	0.254	0.14	0.059
NCI-H2170	0.804	0.685	0.943	0.54	0.113	0.892	0.921	0.972	0.229	0.142	0.376	0.394	0.402	0.221	0.125	0.462	0.465	0.444	0.377	0.126
NCI-H1648	0.549	0.634	0.771	0.518	0.269	0.465	0.594	0.371	0.263	0.389	0.208	0.296	0.258	0.261	0.275	0.516	0.444	0.366	0.453	0.292
HCC-78	0.591	0.603	0.453	0.616	0.238	0.799	0.699	0.312	0.196	0.233	0.517	0.531	0.444	0.451	0.405	0.703	0.744	0.644	0.615	0.291
PC-3 [JPC-3]	0.773	0.829	0.531	0.225	0.199	0.639	0.756	0.41	0.252	0.202	0.521	0.583	0.413	0.285	0.227	0.815	0.84	0.428	0.301	0.237
LCLC-103H	0.816	0.769	0.764	0.748	0.201	0.661	0.687	0.589	0.336	0.256	0.475	0.462	0.419	0.324	0.254	0.66	0.727	0.68	0.274	0.221
EKVX	0.72	0.741	0.845	0.286	0.0785	0.345	0.38	0.208	0.174	0.0845	0.361	0.401	0.28	0.171	0.079	0.36	0.393	0.431	0.25	0.0809

— the supplement of paper PMC10307832
